Test results reported in PubChem BioAssay (NCI).
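A five-concentration, 48-hour dose response in 96-well plates underlies each endpoint, interpolated linearly between surrounding concentrations. TGI marks complete inhibition of growth.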

Columns and labels:
Test in all cases: NCI tumour cell line growth inhibition, 48 h
A549 NSCLC = tested on: A549 NSCLC
SW-620 colon = tested on: SW-620 colon
OVCAR-8 ovarian = tested on: OVCAR-8 ovarian
ACHN renal = tested on: ACHN renal
MDA-N = tested on: MDA-N
RXF 393 renal = tested on: RXF 393 renal
SK-MEL-5 melanoma = tested on: SK-MEL-5 melanoma
786-0 renal = tested on: 786-0 renal
HOP-92 NSCLC = tested on: HOP-92 NSCLC
T-47D breast = tested on: T-47D breast
MOLT-4 leukemia = tested on: MOLT-4 leukemia
NCI-H226 lung = tested on: NCI-H226 lung
SNB-19 CNS = tested on: SNB-19 CNS
HL-60(TB) leukemia = tested on: HL-60(TB) leukemia
KM12 colon = tested on: KM12 colon
NCI-H522 lung = tested on: NCI-H522 lung
EKVX NSCLC = tested on: EKVX NSCLC
DU-145 prostate = tested on: DU-145 prostate
U251 CNS = tested on: U251 CNS
SN12C renal = tested on: SN12C renal
COLO 205 colon = tested on: COLO 205 colon
PC-3 prostate = tested on: PC-3 prostate
CCRF-CEM leukemia = tested on: CCRF-CEM leukemia
M14 melanoma = tested on: M14 melanoma
A498 renal = tested on: A498 renal
SF-295 CNS = tested on: SF-295 CNS
MALME-3M melanoma = tested on: MALME-3M melanoma
HCT-15 colon = tested on: HCT-15 colon
OVCAR-5 ovarian = tested on: OVCAR-5 ovarian
MDA-MB-231 breast = tested on: MDA-MB-231 breast
IGROV1 ovarian = tested on: IGROV1 ovarian
NCI/ADR-RES ovarian = tested on: NCI/ADR-RES ovarian
TK-10 renal = tested on: TK-10 renal
NCI-H23 lung = tested on: NCI-H23 lung
UACC-257 melanoma = tested on: UACC-257 melanoma
SF-268 CNS = tested on: SF-268 CNS
SK-MEL-2 melanoma = tested on: SK-MEL-2 melanoma
UO-31 renal = tested on: UO-31 renal
SK-OV-3 ovarian = tested on: SK-OV-3 ovarian
NCI-H460 lung = tested on: NCI-H460 lung
UACC-62 melanoma = tested on: UACC-62 melanoma
HS 578T breast = tested on: HS 578T breast
BT-549 breast = tested on: BT-549 breast
K-562 leukemia = tested on: K-562 leukemia
SNB-75 CNS = tested on: SNB-75 CNS
SR leukemia = tested on: SR leukemia
HCT-116 colon = tested on: HCT-116 colon
MCF7 breast = tested on: MCF7 breast
HCC-2998 colon = tested on: HCC-2998 colon
HT29 colon = tested on: HT29 colon
CAKI-1 renal = tested on: CAKI-1 renal
MDA-MB-435 = tested on: MDA-MB-435
SF-539 CNS = tested on: SF-539 CNS
OVCAR-4 ovarian = tested on: OVCAR-4 ovarian
LOX IMVI melanoma = tested on: LOX IMVI melanoma
SK-MEL-28 melanoma = tested on: SK-MEL-28 melanoma
OVCAR-3 ovarian = tested on: OVCAR-3 ovarian
HOP-62 NSCLC = tested on: HOP-62 NSCLC

In the case of `O=S(=O)(Nc1ccccc1)c1ccc(-c2c3nc(c(-c4ccc(S(=O)(=O)Nc5ccccc5)cc4)c4ccc([nH]4)c(-c4ccc(S(=O)(=O)Nc5ccccc5)cc4)c4nc(c(-c5ccc(S(=O)(=O)Nc6ccccc6)cc5)c5ccc2[nH]5)C=C4)C=C3)cc1`, the TGI (A549 NSCLC) is reported as > 31.6 µM, the TGI (SW-620 colon) is reported as > 31.6 µM and the TGI (OVCAR-8 ovarian) is reported as > 31.6 µM. The TGI (ACHN renal) was 22.4 µM, the TGI (MDA-N) was > 31.6 µM and the TGI (RXF 393 renal) was > 31.6 µM. The TGI (SK-MEL-5 melanoma) was > 31.6 µM, the TGI (786-0 renal) was > 31.6 µM and the TGI (HOP-92 NSCLC) was > 31.6 µM. For the same molecule, the TGI (T-47D breast) was > 31.6 µM, the TGI (MOLT-4 leukemia) was > 31.6 µM and the TGI (NCI-H226 lung) was > 100 µM. The TGI (SNB-19 CNS) was > 31.6 µM, the TGI (HL-60(TB) leukemia) was > 31.6 µM and the TGI (KM12 colon) was > 31.6 µM. The TGI (NCI-H522 lung) was > 31.6 µM, the TGI (EKVX NSCLC) was > 31.6 µM and the TGI (DU-145 prostate) was > 31.6 µM. For the same molecule, the TGI (U251 CNS) was > 31.6 µM, the TGI (SN12C renal) was > 31.6 µM and the TGI (COLO 205 colon) was > 31.6 µM. For the same molecule, the TGI (PC-3 prostate) was > 31.6 µM, the TGI (CCRF-CEM leukemia) was > 31.6 µM and the TGI (M14 melanoma) was 23.6 µM. The TGI (A498 renal) was > 31.6 µM, the TGI (SF-295 CNS) was > 31.6 µM and the TGI (MALME-3M melanoma) was > 31.6 µM. For the same molecule, the TGI (HCT-15 colon) was > 31.6 µM, the TGI (OVCAR-5 ovarian) was > 31.6 µM and the TGI (MDA-MB-231 breast) was > 31.6 µM. The TGI (IGROV1 ovarian) was > 100 µM, the TGI (NCI/ADR-RES ovarian) was > 31.6 µM and the TGI (TK-10 renal) was > 31.6 µM. The TGI (NCI-H23 lung) was > 31.6 µM, the TGI (UACC-257 melanoma) was > 31.6 µM and the TGI (SF-268 CNS) was > 31.6 µM. For the same molecule, the TGI (SK-MEL-2 melanoma) was > 31.6 µM, the TGI (UO-31 renal) was > 31.6 µM and the TGI (SK-OV-3 ovarian) was > 31.6 µM. The TGI (NCI-H460 lung) was 16.2 µM, the TGI (UACC-62 melanoma) was > 31.6 µM and the TGI (HS 578T breast) was > 31.6 µM. For the same molecule, the TGI (BT-549 breast) was > 31.6 µM, the TGI (K-562 leukemia) was > 31.6 µM and the TGI (SNB-75 CNS) was > 31.6 µM. For the same molecule, the TGI (SR leukemia) was > 31.6 µM, the TGI (HCT-116 colon) was > 31.6 µM and the TGI (MCF7 breast) was > 31.6 µM. The TGI (HCC-2998 colon) was > 31.6 µM, the TGI (HT29 colon) was > 31.6 µM and the TGI (CAKI-1 renal) was > 31.6 µM. The TGI (MDA-MB-435) was > 31.6 µM, the TGI (SF-539 CNS) was > 31.6 µM and the TGI (OVCAR-4 ovarian) was 24.6 µM.

`O=[N+]([O-])c1ccccc1S(=O)(=O)c1cc(O)cc2c1NCCC2` was tested, and the TGI (A549 NSCLC) was > 85.9 µM, the TGI (SW-620 colon) was 32.6 µM and the TGI (OVCAR-8 ovarian) was 41.6 µM. For the same molecule, the TGI (ACHN renal) was 27.4 µM, the TGI (LOX IMVI melanoma) was 38.4 µM and the TGI (MDA-N) was 38.8 µM. The TGI (RXF 393 renal) was 31.7 µM, the TGI (SK-MEL-5 melanoma) was 27.1 µM and the TGI (786-0 renal) was 25.9 µM. It also gave a TGI (HOP-92 NSCLC) of 16.8 µM, a TGI (T-47D breast) of 24.1 µM and a TGI (MOLT-4 leukemia) of 13.6 µM. For the same molecule, the TGI (NCI-H226 lung) was 62.8 µM, the TGI (SNB-19 CNS) was 65.6 µM and the TGI (HL-60(TB) leukemia) was > 23 µM. The TGI (KM12 colon) was 34.3 µM, the TGI (NCI-H522 lung) was 24.5 µM and the TGI (EKVX NSCLC) was 30.7 µM. It also gave a TGI (DU-145 prostate) of 35.7 µM, a TGI (U251 CNS) of 40.1 µM and a TGI (SN12C renal) of 41.5 µM. For the same molecule, the TGI (COLO 205 colon) was 34.3 µM, the TGI (PC-3 prostate) was 28.7 µM and the TGI (CCRF-CEM leukemia) was 5.6 µM. For the same molecule, the TGI (M14 melanoma) was 30.8 µM, the TGI (A498 renal) was 18.4 µM and the TGI (SF-295 CNS) was > 59.1 µM. It also gave a TGI (SK-MEL-28 melanoma) of 33.9 µM, a TGI (MALME-3M melanoma) of 37.9 µM and a TGI (HCT-15 colon) of 44.4 µM. The TGI (OVCAR-5 ovarian) was 40 µM, the TGI (MDA-MB-231 breast) was 32.4 µM and the TGI (IGROV1 ovarian) was 30.8 µM. The TGI (NCI/ADR-RES ovarian) was > 79.3 µM, the TGI (TK-10 renal) was 36.7 µM and the TGI (NCI-H23 lung) was 49 µM. It also gave a TGI (UACC-257 melanoma) of 26.8 µM, a TGI (SF-268 CNS) of 42.6 µM and a TGI (SK-MEL-2 melanoma) of 51.7 µM. It also gave a TGI (OVCAR-3 ovarian) of 18.1 µM, a TGI (HOP-62 NSCLC) of 40.3 µM and a TGI (UO-31 renal) of 29.8 µM. The TGI (SK-OV-3 ovarian) was > 31.6 µM, the TGI (NCI-H460 lung) was 53 µM and the TGI (UACC-62 melanoma) was 28.9 µM. For the same molecule, the TGI (HS 578T breast) was > 86.7 µM, the TGI (BT-549 breast) was 26.3 µM and the TGI (K-562 leukemia) was 7.54 µM. It also gave a TGI (SNB-75 CNS) of 33.5 µM, a TGI (SR leukemia) of 5.37 µM and a TGI (HCT-116 colon) of 20.9 µM. For the same molecule, the TGI (MCF7 breast) was 29.8 µM, the TGI (HCC-2998 colon) was 51.1 µM and the TGI (HT29 colon) was 40.9 µM. For the same molecule, the TGI (CAKI-1 renal) was 63.3 µM, the TGI (MDA-MB-435) was 41.4 µM and the TGI (SF-539 CNS) was 34.8 µM. For the same molecule, the TGI (OVCAR-4 ovarian) was 29.3 µM.
